#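 Five concentrations, 48 hours, 96-well plates. Here, GI50 denotes the concentration required for 50% inhibition of growth.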 The source made the active and inactive calls. Rule as the data show it: active = GI50 up to about 1.1 µM and inactive = higher.
# Legend:
# Assay in all cases: inhibition of tumour cell growth, NCI panel, 48 h
# SNB-19 = test system: SNB-19
# M14 = test system: M14
# SN12C = test system: SN12C
# A498 = test system: A498
# NCI-H226 = test system: NCI-H226
# OVCAR-3 = test system: OVCAR-3
# SK-MEL-28 = test system: SK-MEL-28
# SK-MEL-2 = test system: SK-MEL-2
# MCF7 = test system: MCF7
# T47D = test system: T47D
# NCI-H460 = test system: NCI-H460
# NCI/ADR-RES = test system: NCI/ADR-RES
# PC-3 = test system: PC-3
# MDA-N = test system: MDA-N
# UACC-62 = test system: UACC-62
# HL-60 = test system: HL-60
# IGROV-1 = test system: IGROV-1
# HOP-92 = test system: HOP-92
# CCRF-CEM = test system: CCRF-CEM
# A549 = test system: A549
# COLO 205 = test system: COLO 205
# MDA-MB-231 = test system: MDA-MB-231
# HCT-116 = test system: HCT-116
# SR = test system: SR
# TK-10 = test system: TK-10
# OVCAR-5 = test system: OVCAR-5
# UACC-257 = test system: UACC-257
# NCI-H23 = test system: NCI-H23
# 786-0 = test system: 786-0
# HOP-62 = test system: HOP-62
# Hs-578T = test system: Hs-578T
# UO-31 = test system: UO-31
# U-251 = test system: U-251
# SW-620 = test system: SW-620
# MDA-MB-435 = test system: MDA-MB-435
# EKVX = test system: EKVX
# KM12 = test system: KM12
# RXF 393 = test system: RXF 393
# K562 = test system: K562
# SF-268 = test system: SF-268
# BT-549 = test system: BT-549
# RPMI-8226 = test system: RPMI-8226
# ACHN = test system: ACHN
# LOX IMVI = test system: LOX IMVI
# HCT-15 = test system: HCT-15
# HT-29 = test system: HT-29
# SK-MEL-5 = test system: SK-MEL-5
# DU-145 = test system: DU-145
# SF-539 = test system: SF-539
# MOLT-4 = test system: MOLT-4
# SK-OV-3 = test system: SK-OV-3
# OVCAR-4 = test system: OVCAR-4
# Malme-3M = test system: Malme-3M
# SF-295 = test system: SF-295
# CAKI-1 = test system: CAKI-1
# OVCAR-8 = test system: OVCAR-8
# NCI-H522 = test system: NCI-H522
# SNB-75 = test system: SNB-75
# HCC 2998 = test system: HCC 2998
compound,measurement,setting,value
Cn1cc[n+](-c2cc(=O)n(C)c(=O)[n-]2)c1,GI50,SNB-19,> 100 µM (inactive)
same,GI50,M14,> 100 µM (inactive)
same,GI50,SN12C,> 100 µM (inactive)
same,GI50,A498,> 100 µM (inactive)
same,GI50,NCI-H226,91.8 µM (inactive)
same,GI50,OVCAR-3,80 µM (inactive)
same,GI50,SK-MEL-28,> 100 µM (inactive)
same,GI50,SK-MEL-2,> 100 µM (inactive)
same,GI50,MCF7,93.5 µM (inactive)
same,GI50,T47D,92.3 µM (inactive)
same,GI50,NCI-H460,> 100 µM (inactive)
same,GI50,NCI/ADR-RES,> 100 µM (inactive)
same,GI50,PC-3,> 100 µM (inactive)
same,GI50,MDA-N,> 100 µM (inactive)
same,GI50,UACC-62,> 100 µM (inactive)
same,GI50,HL-60,> 100 µM (inactive)
same,GI50,IGROV-1,> 100 µM (inactive)
same,GI50,HOP-92,> 100 µM (inactive)
same,GI50,CCRF-CEM,> 100 µM (inactive)
same,GI50,A549,> 100 µM (inactive)
same,GI50,COLO 205,96.4 µM (inactive)
same,GI50,MDA-MB-231,> 100 µM (inactive)
same,GI50,HCT-116,> 100 µM (inactive)
same,GI50,SR,27.9 µM (inactive)
same,GI50,TK-10,31.8 µM (inactive)
same,GI50,OVCAR-5,> 100 µM (inactive)
same,GI50,UACC-257,> 100 µM (inactive)
same,GI50,NCI-H23,> 100 µM (inactive)
same,GI50,786-0,> 100 µM (inactive)
same,GI50,HOP-62,> 100 µM (inactive)
same,GI50,Hs-578T,42.8 µM (inactive)
same,GI50,UO-31,44.3 µM (inactive)
same,GI50,U-251,> 100 µM (inactive)
same,GI50,SW-620,> 100 µM (inactive)
same,GI50,MDA-MB-435,> 100 µM (inactive)
same,GI50,EKVX,49.9 µM (inactive)
same,GI50,KM12,> 100 µM (inactive)
same,GI50,RXF 393,> 100 µM (inactive)
same,GI50,K562,81.8 µM (inactive)
same,GI50,SF-268,> 100 µM (inactive)
same,GI50,BT-549,> 100 µM (inactive)
same,GI50,RPMI-8226,96.8 µM (inactive)
same,GI50,ACHN,> 100 µM (inactive)
same,GI50,LOX IMVI,> 100 µM (inactive)
same,GI50,HCT-15,> 100 µM
same,GI50,HT-29,> 100 µM (inactive)
same,GI50,SK-MEL-5,97.7 µM (inactive)
same,GI50,DU-145,> 100 µM (inactive)
same,GI50,SF-539,> 100 µM (inactive)
same,GI50,MOLT-4,77.8 µM (inactive)
same,GI50,SK-OV-3,> 100 µM (inactive)
same,GI50,OVCAR-4,94.4 µM (inactive)
same,GI50,Malme-3M,> 100 µM (inactive)
O=C(Nc1ccc2cc3ccccc3cc2c1)c1cc2c(cc1Cl)Sc1nccn1S2(=O)=O,GI50,SNB-19,25.1 µM (inactive)
same,GI50,M14,42.7 µM (inactive)
same,GI50,SN12C,60.3 µM (inactive)
same,GI50,NCI-H226,82.8 µM (inactive)
same,GI50,OVCAR-3,> 100 µM (inactive)
same,GI50,SF-295,13.4 µM (inactive)
same,GI50,CAKI-1,> 100 µM (inactive)
same,GI50,SK-MEL-28,19.1 µM (inactive)
same,GI50,SK-MEL-2,85.9 µM (inactive)
same,GI50,MCF7,> 100 µM (inactive)
same,GI50,T47D,25.2 µM (inactive)
same,GI50,OVCAR-8,26.4 µM (inactive)
same,GI50,NCI-H460,28.7 µM (inactive)
same,GI50,NCI/ADR-RES,> 100 µM (inactive)
same,GI50,PC-3,6.47 µM (inactive)
same,GI50,MDA-N,44.4 µM (inactive)
same,GI50,UACC-62,64.9 µM (inactive)
same,GI50,HL-60,17.7 µM (inactive)
same,GI50,IGROV-1,15.9 µM (inactive)
same,GI50,HOP-92,42 µM (inactive)
same,GI50,A549,13.6 µM (inactive)
same,GI50,COLO 205,87.3 µM (inactive)
same,GI50,MDA-MB-231,8.97 µM (inactive)
same,GI50,HCT-116,3.85 µM (inactive)
same,GI50,SR,35.2 µM (inactive)
same,GI50,TK-10,16 µM (inactive)
same,GI50,OVCAR-5,21.7 µM (inactive)
same,GI50,UACC-257,58.3 µM (inactive)
same,GI50,NCI-H23,46.5 µM (inactive)
same,GI50,786-0,4.73 µM (inactive)
same,GI50,HOP-62,59.6 µM (inactive)
same,GI50,Hs-578T,> 100 µM (inactive)
same,GI50,UO-31,68.5 µM (inactive)
same,GI50,U-251,5.48 µM (inactive)
same,GI50,SW-620,13.9 µM (inactive)
same,GI50,MDA-MB-435,28.4 µM (inactive)
same,GI50,EKVX,35.6 µM (inactive)
same,GI50,KM12,33.7 µM (inactive)
same,GI50,RXF 393,45.6 µM (inactive)
same,GI50,K562,10.8 µM (inactive)
same,GI50,NCI-H522,33.7 µM (inactive)
same,GI50,SF-268,15.3 µM (inactive)
same,GI50,BT-549,32.5 µM (inactive)
same,GI50,RPMI-8226,> 100 µM (inactive)
same,GI50,ACHN,67.1 µM (inactive)
same,GI50,LOX IMVI,16.8 µM (inactive)
same,GI50,HCT-15,20.7 µM
same,GI50,HT-29,18.9 µM (inactive)
same,GI50,SK-MEL-5,7.93 µM (inactive)
same,GI50,SNB-75,13.3 µM (inactive)
same,GI50,DU-145,20.6 µM (inactive)
same,GI50,SF-539,7.8 µM (inactive)
same,GI50,MOLT-4,33.4 µM (inactive)
same,GI50,HCC 2998,6.84 µM (inactive)
same,GI50,SK-OV-3,> 100 µM (inactive)
same,GI50,OVCAR-4,10.3 µM (inactive)
same,GI50,Malme-3M,19.5 µM (inactive)
Nc1nc2c(=O)c3ccccc3sc2s1,GI50,SNB-19,41.9 µM (inactive)
same,GI50,M14,> 100 µM (inactive)
same,GI50,SN12C,84.3 µM (inactive)
same,GI50,A498,25.4 µM (inactive)
same,GI50,NCI-H226,21.7 µM (inactive)
same,GI50,OVCAR-3,56.2 µM (inactive)
same,GI50,SF-295,44.1 µM (inactive)
same,GI50,CAKI-1,20.4 µM (inactive)
same,GI50,SK-MEL-28,> 100 µM (inactive)
same,GI50,SK-MEL-2,> 100 µM (inactive)
same,GI50,MCF7,5.96 µM (inactive)
same,GI50,T47D,69 µM (inactive)
same,GI50,OVCAR-8,22.6 µM (inactive)
same,GI50,NCI-H460,35.1 µM (inactive)
same,GI50,NCI/ADR-RES,25.9 µM (inactive)
same,GI50,PC-3,60 µM (inactive)
same,GI50,MDA-N,> 100 µM (inactive)
same,GI50,UACC-62,26.6 µM (inactive)
same,GI50,HL-60,28.9 µM (inactive)
same,GI50,IGROV-1,43.2 µM (inactive)
same,GI50,HOP-92,37.4 µM (inactive)
same,GI50,CCRF-CEM,78.3 µM (inactive)
same,GI50,A549,33.7 µM (inactive)
same,GI50,COLO 205,96.4 µM (inactive)
same,GI50,MDA-MB-231,31.9 µM (inactive)
same,GI50,HCT-116,57.8 µM (inactive)
same,GI50,SR,48.3 µM (inactive)
same,GI50,TK-10,41.5 µM (inactive)
same,GI50,OVCAR-5,80.7 µM (inactive)
same,GI50,UACC-257,54.2 µM (inactive)
same,GI50,NCI-H23,48.5 µM (inactive)
same,GI50,786-0,34.7 µM (inactive)
same,GI50,HOP-62,29.2 µM (inactive)
same,GI50,Hs-578T,43.7 µM (inactive)
same,GI50,UO-31,35.6 µM (inactive)
same,GI50,U-251,45.1 µM (inactive)
same,GI50,SW-620,> 100 µM (inactive)
same,GI50,MDA-MB-435,> 100 µM (inactive)
same,GI50,EKVX,23 µM (inactive)
same,GI50,KM12,> 100 µM (inactive)
same,GI50,RXF 393,39.8 µM (inactive)
same,GI50,K562,34.8 µM (inactive)
same,GI50,SF-268,40.6 µM (inactive)
same,GI50,BT-549,41.4 µM (inactive)
same,GI50,RPMI-8226,33.6 µM (inactive)
same,GI50,ACHN,45.5 µM (inactive)
same,GI50,LOX IMVI,46.1 µM (inactive)
same,GI50,HCT-15,34.5 µM
same,GI50,HT-29,54.8 µM (inactive)
same,GI50,SK-MEL-5,35.5 µM (inactive)
same,GI50,SNB-75,40.5 µM (inactive)
same,GI50,DU-145,68.9 µM (inactive)
same,GI50,SF-539,17.3 µM (inactive)
same,GI50,MOLT-4,47.4 µM (inactive)
